Results: PubChem BioAssay (NCI)
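How tested: cells in 96-well plates exposed to compound for 48 hours at five concentrations. The concentration for full growth arrest is given as TGI.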

Assays:
Test in all cases: NCI tumour cell line growth inhibition, 48 h
786-0 renal = system: 786-0 renal
A498 renal = system: A498 renal
A549 NSCLC = system: A549 NSCLC
ACHN renal = system: ACHN renal
CAKI-1 renal = system: CAKI-1 renal
CCRF-CEM leukemia = system: CCRF-CEM leukemia
COLO 205 colon = system: COLO 205 colon
DLD-1 colon = system: DLD-1 colon
DMS 114 small cell lung = system: DMS 114 small cell lung
DMS 273 small cell lung = system: DMS 273 small cell lung
EKVX NSCLC = system: EKVX NSCLC
HCC-2998 colon = system: HCC-2998 colon
HCT-116 colon = system: HCT-116 colon
HCT-15 colon = system: HCT-15 colon
HL-60(TB) leukemia = system: HL-60(TB) leukemia
HOP-18 NSCLC = system: HOP-18 NSCLC
HOP-62 NSCLC = system: HOP-62 NSCLC
HOP-92 NSCLC = system: HOP-92 NSCLC
HT29 colon = system: HT29 colon
IGROV1 ovarian = system: IGROV1 ovarian
K-562 leukemia = system: K-562 leukemia
KM12 colon = system: KM12 colon
KM20L2 colon = system: KM20L2 colon
LOX IMVI melanoma = system: LOX IMVI melanoma
LXFL 529 NSCLC = system: LXFL 529 NSCLC
M14 melanoma = system: M14 melanoma
MALME-3M melanoma = system: MALME-3M melanoma
MOLT-4 leukemia = system: MOLT-4 leukemia
NCI-H226 lung = system: NCI-H226 lung
NCI-H23 lung = system: NCI-H23 lung
NCI-H460 lung = system: NCI-H460 lung
NCI-H522 lung = system: NCI-H522 lung
OVCAR-4 ovarian = system: OVCAR-4 ovarian
OVCAR-5 ovarian = system: OVCAR-5 ovarian
OVCAR-8 ovarian = system: OVCAR-8 ovarian
RPMI-8226 leukemia = system: RPMI-8226 leukemia
RXF 393 renal = system: RXF 393 renal
RXF-631 renal = system: RXF-631 renal
SF-268 CNS = system: SF-268 CNS
SF-295 CNS = system: SF-295 CNS
SF-539 CNS = system: SF-539 CNS
SK-MEL-2 melanoma = system: SK-MEL-2 melanoma
SK-MEL-28 melanoma = system: SK-MEL-28 melanoma
SK-MEL-5 melanoma = system: SK-MEL-5 melanoma
SK-OV-3 ovarian = system: SK-OV-3 ovarian
SN12C renal = system: SN12C renal
SNB-19 CNS = system: SNB-19 CNS
SNB-78 CNS = system: SNB-78 CNS
SR leukemia = system: SR leukemia
SW-620 colon = system: SW-620 colon
TK-10 renal = system: TK-10 renal
U251 CNS = system: U251 CNS
UACC-257 melanoma = system: UACC-257 melanoma
UACC-62 melanoma = system: UACC-62 melanoma
UO-31 renal = system: UO-31 renal
XF 498 CNS = system: XF 498 CNS

Measured: TGI

COC(=O)C(=O)C(C(=O)C(=O)Nc1cccc(C(C)=O)c1)c1nc2ccc([N+](=O)[O-])cc2[nH]c1=O (stereo unspecified)
> 100 µM: 786-0 renal | A498 renal | A549 NSCLC | ACHN renal | CAKI-1 renal | CCRF-CEM leukemia | COLO 205 colon | DLD-1 colon | DMS 114 small cell lung | DMS 273 small cell lung | EKVX NSCLC | HCC-2998 colon | HCT-116 colon | HCT-15 colon | HL-60(TB) leukemia | HOP-18 NSCLC | HOP-62 NSCLC | HOP-92 NSCLC | HT29 colon | IGROV1 ovarian | K-562 leukemia | KM12 colon | KM20L2 colon | LOX IMVI melanoma | LXFL 529 NSCLC | M14 melanoma | MALME-3M melanoma | MOLT-4 leukemia | NCI-H226 lung | NCI-H23 lung | NCI-H460 lung | NCI-H522 lung | OVCAR-4 ovarian | OVCAR-5 ovarian | OVCAR-8 ovarian | RPMI-8226 leukemia | RXF 393 renal | RXF-631 renal | SF-268 CNS | SF-295 CNS | SF-539 CNS | SK-MEL-2 melanoma | SK-MEL-28 melanoma | SK-MEL-5 melanoma | SK-OV-3 ovarian | SN12C renal | SNB-19 CNS | SNB-78 CNS | SR leukemia | SW-620 colon | TK-10 renal | U251 CNS | UACC-257 melanoma | UACC-62 melanoma | UO-31 renal | XF 498 CNS
